Test results as given in US9532519B2, “Plant growth regulator and use thereof” (Japan Science and Technology Agency, priority 2006, dated 2017).

Experiments:
Format in all cases: in vivo
[1] = system: eustoma; test: Effect on promoting growth of roots of eustoma; conditions: MS culture medium containing 1 mM-GSSG or GSH, grown 1 month, transferred to planter
Excerpt: In the planter, 2 parts of vermiculite, 1 part of The Kureha Ikubyou Baido soil, and 1 part of vermiculite were layered as a lower layer, a middle layer, and an upper layer, respectively, and the above plants were transferred thereto.

[2] = system: strawberry (breed; Eminent garden series, Yokubari-ichigo kurenai (SUMIKA)); test: Effect of oxidized glutathione on growth of strawberry (number of runners); conditions: GSH-treated zone
[3] = system: Arabidopsis; test: Influence of oxidized glutathione on growth of Arabidopsis; conditions: 5 mM H2O2 solution; 8 weeks after the sowing
Protocol: Specifically, the plants were cultivated with two or three plants in one pod of approximately 65 in width, 65 in depth, and 50 in height, and an appropriate amount of a treatment solution was supplied. The effect of the treatment was evaluated with respect to the number of rosette leaves, the speed of a growing flower stalk, the number of flowers, and the number of seeds.

Row | SMILES | growth of roots vs plants not treated with GSSG [1] | increase in the number of runners relative to the increase of the GSSG-treated zone [2] | number of runners per one stock vs Cont zone [2] | state of plant (life of plant) [3]
1 | N[C@@H](CCC(=O)N[C@@H](CS)C(=O)NCC(=O)O)C(=O)O [GSH, reduced glutathione] | subdued growth of roots | approximately one third | more number of runners per one stock than a Cont zone | –
2 | OO [H2O2, reference compound] | – | – | – | withering
